Patent US5075440A, “Novel pyrido[2,3-f](1,4)thiazepines and pyrido[3,2-b](1,5)benzothiazepines” (Ortho Pharmaceutical Corporation, priority 1990, dated 1991)
Values joined by “and” are separate entries in the source; they are usually repeats but may differ in a detail not shown here. Equal values may be shown once.

Experiments:
aorta tissue = assay: Inhibition of calcium dependent smooth muscle contraction, aorta (P#176 Aorta); set-up: species or system dog; conditions: 50 mM KCl contraction
Method: (§1) The test for inhibition of calcium dependent smooth muscle contraction is determined according to the following procedure:
(§2) The trachea and the aorta from dogs sacrificed by excess KCl injection are stored overnight at 4° C. in oxygenated Krebs-Henseleit buffer. Tracheal rings, one cartilage segment wide (5-10 mm), are cut starting from the bronchial end. Rings of aorta tissue of the same width are also prepared. After cutting the cartilage, the trachealis muscle tissue and the aorta tissue are suspended in oxygenated Krebs-Henseleit buffer at 37° C. in a 25 ml tissue bath. After a 60-minute equilibration period, the tissues are challenged with 10 μM carbachol. After 5 minutes, the tissues are rinsed and allowed to rest 50 minutes. The tissues are then challenged with 50 mM KCl and, after 30 minutes, the contractions are quantitated. The tissues are then rinsed and reequilibrated for 50 minutes. Test compounds are then added for 10 minutes, and the tissue is rechallenged with 50 mM KCl. After 30 minutes, the contraction is recorded and used to determine the % inhibition of control.
(§3) The percent inhibition of smooth muscle contraction is calculated from response data before and after drug treatment. [formula]

trachealis muscle tissue = assay: Inhibition of calcium dependent smooth muscle contraction, trachea (P#176 Trach); set-up: species or system dog; conditions: 50 mM KCl contraction; for inhibition at 0.01 µM / inhibition at 0.1 µM / inhibition at 2 µM / inhibition at 0.3 µM / inhibition at 1 µM / inhibition at 0.03 µM: Canis lupus familiaris, read-out: P#176 Trach % INHB/μM
Method: as §1, §2, §3

[1] = target: T1, Calcium Channel (3H-nitrendipine binding, heart membranes) (Oryctolagus cuniculus, UniProt P15381); assay: Inhibition of 3H-nitrendipine binding (P#166 Nit. Binding); set-up: species or system rabbit; conditions: for IC50: rabbit heart membranes, 3H-nitrendipine 0.05-0.50 nM
T1 construct: the heart is immediately removed, cleaned and chopped into small pieces; The tissue is homogenized; from tissue; host or cells: heart membranes of female New Zealand white rabbits (42,000×g pellet)
T1 sequence (P15381 whole entry, other chains not shown): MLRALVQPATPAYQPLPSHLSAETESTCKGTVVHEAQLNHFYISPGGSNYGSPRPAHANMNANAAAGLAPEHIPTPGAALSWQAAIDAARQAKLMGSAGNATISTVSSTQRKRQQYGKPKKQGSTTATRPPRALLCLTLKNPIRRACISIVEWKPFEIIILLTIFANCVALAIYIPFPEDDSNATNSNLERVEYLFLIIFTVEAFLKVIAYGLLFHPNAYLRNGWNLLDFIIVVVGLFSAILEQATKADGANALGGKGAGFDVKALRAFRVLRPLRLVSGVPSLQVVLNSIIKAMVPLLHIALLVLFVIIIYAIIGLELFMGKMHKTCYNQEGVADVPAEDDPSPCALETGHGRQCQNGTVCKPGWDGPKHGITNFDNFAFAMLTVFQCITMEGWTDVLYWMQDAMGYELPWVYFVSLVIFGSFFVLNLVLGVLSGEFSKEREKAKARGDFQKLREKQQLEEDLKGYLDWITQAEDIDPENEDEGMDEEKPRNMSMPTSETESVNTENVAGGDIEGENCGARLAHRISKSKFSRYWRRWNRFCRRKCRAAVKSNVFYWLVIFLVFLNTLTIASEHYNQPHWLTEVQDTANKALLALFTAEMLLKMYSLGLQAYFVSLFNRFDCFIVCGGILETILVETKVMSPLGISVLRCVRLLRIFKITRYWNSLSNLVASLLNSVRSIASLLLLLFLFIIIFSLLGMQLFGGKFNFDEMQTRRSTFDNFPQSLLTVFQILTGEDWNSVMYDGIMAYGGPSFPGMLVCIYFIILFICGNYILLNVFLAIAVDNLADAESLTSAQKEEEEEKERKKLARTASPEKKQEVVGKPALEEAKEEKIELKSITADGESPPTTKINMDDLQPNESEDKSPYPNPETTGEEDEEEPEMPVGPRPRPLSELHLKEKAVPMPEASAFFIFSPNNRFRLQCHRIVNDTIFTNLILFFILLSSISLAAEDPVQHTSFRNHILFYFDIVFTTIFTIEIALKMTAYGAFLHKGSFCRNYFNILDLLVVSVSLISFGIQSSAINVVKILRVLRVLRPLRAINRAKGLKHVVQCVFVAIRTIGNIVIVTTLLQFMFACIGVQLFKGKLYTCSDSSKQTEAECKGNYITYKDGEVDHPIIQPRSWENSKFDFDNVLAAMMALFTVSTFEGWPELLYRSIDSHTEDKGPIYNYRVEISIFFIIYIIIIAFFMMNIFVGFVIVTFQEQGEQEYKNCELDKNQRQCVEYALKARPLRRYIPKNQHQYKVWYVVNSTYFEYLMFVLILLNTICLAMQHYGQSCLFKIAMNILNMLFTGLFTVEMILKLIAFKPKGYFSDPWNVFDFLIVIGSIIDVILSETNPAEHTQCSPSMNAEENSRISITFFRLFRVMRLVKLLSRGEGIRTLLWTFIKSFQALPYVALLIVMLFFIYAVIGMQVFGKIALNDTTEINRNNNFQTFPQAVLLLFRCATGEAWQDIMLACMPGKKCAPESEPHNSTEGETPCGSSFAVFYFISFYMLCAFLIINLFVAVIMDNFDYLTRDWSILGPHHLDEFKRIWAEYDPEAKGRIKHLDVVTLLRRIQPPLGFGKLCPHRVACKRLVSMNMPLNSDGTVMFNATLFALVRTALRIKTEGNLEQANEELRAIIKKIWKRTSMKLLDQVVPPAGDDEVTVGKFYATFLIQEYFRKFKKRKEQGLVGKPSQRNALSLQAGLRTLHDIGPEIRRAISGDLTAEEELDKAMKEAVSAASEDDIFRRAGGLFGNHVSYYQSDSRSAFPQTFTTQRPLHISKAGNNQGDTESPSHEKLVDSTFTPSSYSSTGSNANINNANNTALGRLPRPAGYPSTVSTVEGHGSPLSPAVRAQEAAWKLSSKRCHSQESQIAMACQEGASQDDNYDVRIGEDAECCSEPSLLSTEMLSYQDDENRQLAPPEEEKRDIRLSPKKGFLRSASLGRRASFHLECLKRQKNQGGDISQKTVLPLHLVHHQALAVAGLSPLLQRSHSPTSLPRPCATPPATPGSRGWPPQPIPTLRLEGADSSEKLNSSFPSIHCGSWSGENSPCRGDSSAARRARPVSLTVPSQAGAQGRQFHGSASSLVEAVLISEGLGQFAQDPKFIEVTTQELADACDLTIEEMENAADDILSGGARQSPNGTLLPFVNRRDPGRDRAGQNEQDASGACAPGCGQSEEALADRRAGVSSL
T1 sequence (P13806 27-960 partner limits assumed, other chains not shown): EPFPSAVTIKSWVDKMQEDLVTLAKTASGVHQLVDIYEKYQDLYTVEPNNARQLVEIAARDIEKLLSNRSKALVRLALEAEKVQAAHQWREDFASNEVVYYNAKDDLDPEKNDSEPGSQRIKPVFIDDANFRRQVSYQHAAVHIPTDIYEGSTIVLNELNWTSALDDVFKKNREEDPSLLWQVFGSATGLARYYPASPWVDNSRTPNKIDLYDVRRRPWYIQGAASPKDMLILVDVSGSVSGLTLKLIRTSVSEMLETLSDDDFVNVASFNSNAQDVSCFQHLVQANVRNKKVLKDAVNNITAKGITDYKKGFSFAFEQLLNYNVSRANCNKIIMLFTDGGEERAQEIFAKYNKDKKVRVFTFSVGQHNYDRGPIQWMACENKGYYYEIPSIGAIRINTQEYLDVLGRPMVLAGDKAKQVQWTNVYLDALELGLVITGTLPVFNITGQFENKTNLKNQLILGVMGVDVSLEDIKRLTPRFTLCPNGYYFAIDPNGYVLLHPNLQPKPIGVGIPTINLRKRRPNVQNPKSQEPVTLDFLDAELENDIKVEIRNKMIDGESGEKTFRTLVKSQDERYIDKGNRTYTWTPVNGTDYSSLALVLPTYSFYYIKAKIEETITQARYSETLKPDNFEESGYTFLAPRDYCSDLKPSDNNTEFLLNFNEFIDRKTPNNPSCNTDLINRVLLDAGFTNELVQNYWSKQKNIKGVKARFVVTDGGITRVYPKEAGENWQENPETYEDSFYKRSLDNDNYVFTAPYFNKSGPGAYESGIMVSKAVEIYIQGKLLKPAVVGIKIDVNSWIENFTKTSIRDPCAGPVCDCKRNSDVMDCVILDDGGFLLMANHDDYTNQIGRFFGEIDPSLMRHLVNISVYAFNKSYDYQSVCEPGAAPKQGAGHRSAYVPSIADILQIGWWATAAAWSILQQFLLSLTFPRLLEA
T1 sequence (P13806 961-1106 partner limits assumed, other chains not shown): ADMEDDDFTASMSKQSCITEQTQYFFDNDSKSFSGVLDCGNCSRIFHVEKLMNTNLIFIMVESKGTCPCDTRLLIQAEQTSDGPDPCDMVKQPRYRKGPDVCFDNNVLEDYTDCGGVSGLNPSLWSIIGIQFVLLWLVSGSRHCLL
Method: The assay for inhibition of nitrendipine binding is performed using the following procedure:
Female, New Zealand white rabbits (1-2 kg) are sacrificed by cervical dislocation, and the heart is immediately removed, cleaned and chopped into small pieces. The tissue is homogenized in 5×volume of 0.05M Hepes buffer, pH 7.4. The homogenate is centrifuged at 4000×g for 10 minutes, and the supernatant is recentrifuged at 42,000×g for 90 minutes. The resulting membrane pellet is resuspended (0.7 ml/g weight) in 0.05M Hepes, pH 7.4 and stored at […] until used. Each tube of the binding assay contains ^3 H-nitrendipine (0.05-0.50 nM), buffer, membranes (0.10 ml), and test compound in a total volume of 1.0 ml. After 90 minutes at 4° C., the bound nitrendipine is separated from the unbound by filtration on Whatman GF/C filters. After rinsing, the filters are dried and counted in a liquid scintillation counter.
Non-specific binding of ^3 H-nitrendipine (that amount bound in the presence of excess unlabelled nitrendipine) is subtracted from the total bound to obtain specifically bound radiolabeled nitrendipine. The amount of specifically bound nitrendipine in the presence of a test compound is compared to that amount bound in the absence of a compound. A percent displacement (or inhibition) can then be obtained.

[2] = Canis lupus familiaris, 0.1 μM, read-out: P#176 Aorta % INHB/μM
[3] = Canis lupus familiaris, 1.0 μM, read-out: P#176 Aorta % INHB/μM
[4] = Canis lupus familiaris, 0.01 μM, read-out: P#176 Aorta % INHB/μM
[5] = Canis lupus familiaris, read-out: P#176 Aorta % INHB/μM

IC50 [1]	Compound	inhibition at 0.1 µM (aorta tissue; [2]) [%]	inhibition at 1 µM (aorta tissue; [3]) [%]	inhibition at 0.1 µM (trachealis muscle tissue; 0.1 μM) [%]	inhibition at 2 µM (trachealis muscle tissue; 2.0 μM) [%]	inhibition at 0.01 µM (aorta tissue; [4]) [%]	inhibition at 0.3 µM (trachealis muscle tissue) [%]	also measured
	CC(=O)OCCOC(=O)C1=C(C)NC2=C(C1c1cccc(Cl)c1Cl)S(=O)(=O)CCNC2 (stereo not drawn) [2,3-dichloro / H / 2-acetoxyethyl, 2-Acetoxyethyl 9-(2,3-Dichlorophenyl) -1,1-dioxo-2,3,4,5,6,9-hexahydro-7-methylpyrido [2,3-f][1,4]thiazepine-8-carboxylate]	18	72					inhibition at 0.3 µM (aorta tissue; Canis lupus familiaris, 0.3 μM, read-out: P#176 Aorta % INHB/μM): 62%
120 nM	CCOC(=O)C1=C(C)NC2=C(C1c1cccc(Cl)c1Cl)S(=O)(=O)CCN(C)C2 (stereo not drawn) [2,3-dichloro / Me / ethyl, Ethyl 9-(2,3-dichlorophenyl)-4,7-dimethy-1,1-dioxo-2,3,4,5,6,9-hexahydropyrido[2,3-f][1,4]thiazepine-8-carboxylate]	96	97	80	98	67		inhibition at 0.01 µM (trachealis muscle tissue): 55%
	CC(=O)OCCOC(=O)C1=C(C)NC2=C(C1c1cccc(Cl)c1Cl)S(=O)(=O)CCN(C)C2 (stereo not drawn) [2,3-dichloro / Me / 2-acetoxyethyl, 2-Acetoxyethyl 9-(2,3-dichlorophenyl)-4,7-dimethyl-1,1-dioxo-2,3,4,5,6,9-hexahydropyrido[2,3-f][1,4]-thiazepine-8-carboxylate]	26	89			0		
	CCOC(=O)C1=C(C)NC2=C(C1c1ccccc1C(F)(F)F)S(=O)(=O)CCN(C(=O)OC(C)(C)C)C2 (stereo not drawn) [2-CF3 / BOC / ethyl]	37	47		50		24	inhibition at 1 µM ([1]; @ 1.0 μM test compound): 7%
	CC1=C(C(=O)OCCO)C(c2cccc(Cl)c2Cl)C2=C(CN(C)CCS2(=O)=O)N1 (stereo not drawn) [2,3-dichloro / Me / 2-hydroxyethyl]	14	62					inhibition at 3 µM (aorta tissue; Canis lupus familiaris, 3.0 μM, read-out: P#176 Aorta % INHB/μM): 77%; inhibition at 10 µM (aorta tissue; [5]): 95%
	CCOC(=O)C1=C(C)NC2=C(C1c1ccccc1[N+](=O)[O-])S(=O)(=O)CCNC2 (stereo not drawn) [2-nitro / H / ethyl]	47	77	12	75	27	45	
360 nM	CCOC(=O)C1=C(C)NC2=C(C1c1ccccc1C(F)(F)F)S(=O)(=O)CCNC2 (stereo not drawn) [2-CF3 / H / ethyl]	68	83	38	73	37	35	
	CCOC(=O)C1=C(C)NC2=C(C1c1cccc(Cl)c1Cl)S(=O)(=O)CCN(C(=O)CN)C2 (stereo not drawn) [2,3-dichloro / NH2 CH2 CO / ethyl]		20		36		6	
870 nM	CCOC(=O)C1=C(C)NC2=C(C1c1c(F)cccc1Cl)S(=O)(=O)CCNC2 (stereo not drawn) [2-Cl, 6-F / H / ethyl]		86		88	4.8	56	
	CC1=C(C(=O)OCCO)C(c2cccc(Cl)c2Cl)C2=C(CNCCS2(=O)=O)N1 (stereo not drawn) [2,3-dichloro / H / 2-hydroxyethyl]		0					inhibition at 10 µM (aorta tissue; [5]): 56%
	CCOC(=O)C1=C(C)NC2=C(C1c1cccc(Cl)c1Cl)S(=O)(=O)c1ccccc1N(C=O)C2 (stereo not drawn) [2,3-dichloro / CHO / ethyl, Ethyl 4-(2,3-dichlorophenyl)-5,5-dioxo-10-formyl-2-methyl-1,4,10,11-tetrahydropyrido[3,2-b][1,5]-benzothiazepine-3-carboxylate]	50	74		73	33	35	inhibition at 0.01 µM (trachealis muscle tissue): 38%
60 nM	CCOC(=O)C1=C(C)NC2=C(C1c1cccc(Cl)c1Cl)S(=O)(=O)CCN(CC)C2 (stereo not drawn) [2,3-dichloro / Et / ethyl, Ethyl 9-(2,3-dichlorophenyl)-1,1-dioxo-4-ethyl-2,3,4,5,6,9-hexahydro-7-methyl-pyrido[2,3-f][1,4]-thiazepine-8-carboxylate]	76	96			19	70	inhibition at 0.01 µM (trachealis muscle tissue): 33%; inhibition at 1 µM (trachealis muscle tissue): 90%
99 nM and 105 nM	CCOC(=O)C1=C(C)NC2=C(C1c1cccc(Cl)c1Cl)S(=O)(=O)CCNC2 (stereo not drawn) [2,3-dichloro / H / ethyl, Ethyl 9-(2,3-dichlorophenyl)-1,1-dioxo-2,3,4,5,6,9-hexahydro-7-methyl-pyrido[2,3-f][1,4]thiazepine-8-carboxylate]	85	96	43		21		inhibition at 1 µM (trachealis muscle tissue): 73%
	CCCCCCCN1CCS(=O)(=O)C2=C(C1)NC(C)=C(C(=O)OCC)C2c1cccc(Cl)c1Cl (stereo not drawn) [2,3-dichloro / hept / ethyl]	4			27			
210 nM	CCOC(=O)C1=C(C)NC2=C(C1c1cccc(Cl)c1Cl)S(=O)(=O)CCN(Cc1ccccc1)C2 (stereo not drawn) [2,3-dichloro / Bz / ethyl, Ethyl 4-N-Benzyl-9-(2,3-dichlorophenyl) -1,1-dioxo-2,3,4,5,6,9-hexahydro-7-methylpyrido [2,3-f][1,4]thiazepine-8-carboxylate]		79	10	32			
	CCOC(=O)C1=C(C)NC2=C(C1c1cccc([N+](=O)[O-])c1)S(=O)(=O)CCN(CC)C2 (stereo not drawn) [3-nitro / Et / ethyl, Ethyl 1,1-dioxo-4-ethyl-2,3,4,5,6,9-hexahydro-7-methyl-9-(3-nitrophenyl)-pyrido[2,3-f][1,4]-thiazepine-8-carboxylate]	73		73		5	92	inhibition at 0.03 µM (trachealis muscle tissue): 50%
	CCOC(=O)C1=C(C)NC2=C(C1c1cccc(Cl)c1Cl)S(=O)(=O)CCNC2 (single isomer, unassigned) [2,3-dichloro / H / ethyl, Ethyl 9-(2,3-dichlorophenyl)-1,1-dioxo-2,3,4,5,6,9-hexahydro-7-methylpyrido[2,3-f][1,4]-thiazepine-8-carboxylate]						24	inhibition at 0.03 µM (trachealis muscle tissue): 25%
	CCOC(=O)C1=C(C)NC2=C(C1c1cccc(Cl)c1Cl)S(=O)(=O)CCNC2 (single isomer, unassigned) [2,3-dichloro / H / ethyl] [Ethyl 9-(2,3-dichlorophenyl)-1,1-dioxo-2,3,4,5,6,9-hexahydro-7-methylpyrido[2,3-f][1,4]-thiazepine-8-carboxylate]							P#176 Trach % INHB/μM (trachealis muscle tissue; 0.1 μM): 2% and 47%; P#176 Trach % INHB/μM (trachealis muscle tissue; 2.0 μM): 54% and 96%; P#176 Aorta % INHB/μM (aorta tissue; 0.01 μM): 0% and 14%; P#176 Aorta % INHB/μM (aorta tissue; 0.1 μM): 0% and 67%; P#176 Aorta % INHB/μM (aorta tissue; 1.0 μM): 69% and 97%
150 nM	CC1=C(C(=O)OCCN(C)Cc2ccccc2)C(c2cccc(Cl)c2Cl)C2=C(CN(C)CCS2(=O)=O)N1 (stereo not drawn) [2,3-dichloro / Me / NBzNMe-ethyl]			54	88		71	inhibition at 0.03 µM (trachealis muscle tissue): 28%
